# Test results taken from patent US20180312534A1, “FLUORESCENT ANTICANCER PLATINUM DRUGS” (INVICTUS ONCOLOGY PVT. LTD., priority 2015, published 2018).
# System: A549
# Assay: Cellular uptake of fluorescent compounds (fluorescence microscopy)
# Assay type: cell-based
# Conditions: A549, post 5-hours incubation
# Protocol: The intracellular localization of molecules was visualized by fluorescence microscopy. Cells were seeded on cover slips to a confluency of 40% and grown for 24 hours in a humidified chamber. Cells were treated with fluorescent compounds and incubated for 2, 5 and 24 hours. Following incubation, cells were washed with PBS, fixed in 4% paraformaldehyde and observed under epifluorescence microscope. Images were recorded in phase contrast and fluorescent channels. Cells treated with vehicle and/or ligand were considered as control and microscopically evaluated.
structure (smiles),measurement,value
NCC(N)C(=O)OCCNc1ccc2cccc3c2c1C(=O)C=C3 (stereo not shown) [Im-02],intracellular localization of fluorescence,punctate dots in the cytoplasm or along cell margins
